Reference: patent US20100048488A1, “IMMUNOMODULATORY PEPTIDES” (Syntonix Pharmaceuticals, Inc., priority 2008, published 2010)

Tests used:
[1] = Solubility by visual inspection of lyophilized peptide in buffer; type: physicochemical; conditions: for Solubility at 50 mg/mL peptide in PBS + 40 mM sodium phosphate, pH 7.4, after 30 minutes at room temperature: PBS + 40 mM sodium phosphate pH 7.4, 30 minutes room temperature; for Solubility at 100 mg/mL peptide in 100 mM sodium phosphate, pH 7.4, after 30 minutes at room temperature: 100 mM sodium phosphate pH 7.4, 30 minutes room temperature
[2] = Pharmacokinetics in SD rats (serum peptide concentration by LCMS); type: in vivo; conditions: rat, sc, single subcutaneous dose, peptide concentration 30 mg/mL; for level at 0.5 h: timepoint 0.5 hr; for level at 2 h: timepoint 2.00 hr; for level at 4 h: timepoint 4.00 hr; for level at 6 h: timepoint 6.00 hr; for level at 24 h: timepoint 24.00 hr; for level at 48 h: timepoint 48.00 hr
Experimental: SD Rats (3 per group) were treated with a single subcutaneous dose of either Peptide 283 or Peptide 310, at a peptide concentration of 30 mg/mL. Blood was collected at 0.5, 2, 4, 6, 24, 48 hours, serum was prepared and the peptide concentrations in serum were determined by LCMS.

[3] = molecular target: T1, soluble human FcRn (shFcRn) (Homo sapiens, UniProt P55899); assay: Peptide-IgG competition ELISA; type: binding; conditions: 3 nM human IgG, pH 6, 37° C. 2 hours
T1 construct: made in house; host or cells: Chinese hamster ovary (CHO) cells, glutamine synthetase expression system
Experimental: The wells were coated with 100 μl/well of 1 μg/ml biotinylated-shFcRn in Buffer A. The plate was sealed and incubated at 37° C. for 2 hours. Afterwards, the plate was washed with 200 μl/well of Buffer B (Buffer B: 100 mM MES pH 6, 150 mM NaCl, 0.5% BSA IgG-free (Jackson ImmunoResearch, West Grove, Pa.), 0.05% Tween-20). […] To allow for mixing, the plate was rocked for 2 minutes, sealed and incubated at 37° C. for 2 hours. […] The plate was covered, incubated for 30 minutes at room temperature and washed 4 times with 200 μl/well of ice-cold buffer B. SureBlue TMB substrate solution (100 μl/well, KPL, Gaithersburg, Md.) was added and the plate was allowed to incubate at room temperature until color developed, which took 5 to 10 minutes. Once color developed, 100 μl/well of TMB stop solution (KPL, Gaithersburg, Md.) was added and the absorbance was measured at 450 nm.

Row | Solubility at 50 mg/mL peptide in PBS + 40 mM sodium phosphate, pH 7.4, after 30 minutes at room temperature [1] | Solubility at 100 mg/mL peptide in 100 mM sodium phosphate, pH 7.4, after 30 minutes at room temperature [1] | level at 0.5 h [2] [ng/mL] | level at 2 h [2] [ng/mL] | level at 4 h [2] [ng/mL] | level at 6 h [2] [ng/mL] | level at 24 h [2] [ng/mL] | level at 48 h [2] [ng/mL] | IC50 [3] [nM] | SMILES
1 | Insoluble | Insoluble | 23 ± 14 | 50 ± 16 | 66 ± 42 | 68 ± 34 | 41 ± 6 | 19 ± 4 | – | CC(C)C[C@H]1C(=O)N[C@@H](Cc2ccc(O)cc2)C(=O)N2CCC[C@H]2C(=O)N[C@H](C(N)=O)CSSC(C)(C)[C@H](NC(=O)[C@H](Cc2ccccc2)NC(=O)[C@H](CCCNC(=N)N)NC(=O)CCC(=O)N[C@@H](CCCNC(=N)N)C(=O)N[C@@H](Cc2ccccc2)C(=O)N[C@@H]2C(=O)N[C@@H]([C@@H](C)O)C(=O)NCC(=O)N[C@@H](Cc3c[nH]cn3)C(=O)N[C@@H](Cc3ccccc3)C(=O)NCC(=O)N(C)CC(=O)N(C)[C@@H](CC(C)C)C(=O)N[C@@H](Cc3ccc(O)cc3)C(=O)N3CCC[C@H]3C(=O)N[C@H](C(N)=O)CSSC2(C)C)C(=O)N[C@@H]([C@@H](C)O)C(=O)NCC(=O)N[C@@H](Cc2c[nH]cn2)C(=O)N[C@@H](Cc2ccccc2)C(=O)NCC(=O)N(C)CC(=O)N1C [Peptide No. 283]
2 | Soluble | Soluble | 137 ± 60 | 183 ± 81 | 440 ± 156 | 557 ± 268 | 117 ± 36 | 37 ± 15 | 1.8 ± 1.1 | CC(C)C[C@H]1C(=O)N[C@@H](Cc2ccc(O)cc2)C(=O)N2CCC[C@H]2C(=O)N[C@H](C(=O)N[C@@H](CCCCN)C(N)=O)CSSC(C)(C)[C@H](NC(=O)[C@H](Cc2ccccc2)NC(=O)[C@H](CCCNC(=N)N)NC(=O)CCC(=O)N[C@@H](CCCNC(=N)N)C(=O)N[C@@H](Cc2ccccc2)C(=O)N[C@@H]2C(=O)N[C@@H]([C@@H](C)O)C(=O)NCC(=O)N[C@@H](Cc3c[nH]cn3)C(=O)N[C@@H](Cc3ccccc3)C(=O)NCC(=O)N(C)CC(=O)N(C)[C@@H](CC(C)C)C(=O)N[C@@H](Cc3ccc(O)cc3)C(=O)N3CCC[C@H]3C(=O)N[C@H](C(=O)N[C@@H](CCCCN)C(N)=O)CSSC2(C)C)C(=O)N[C@@H]([C@@H](C)O)C(=O)NCC(=O)N[C@@H](Cc2c[nH]cn2)C(=O)N[C@@H](Cc2ccccc2)C(=O)NCC(=O)N(C)CC(=O)N1C [Peptide No. 310]
3 | Insoluble | Insoluble | – | – | – | – | – | – | 1.5 ± 0.7 | CC(C)C[C@H]1C(=O)N[C@@H](Cc2ccc(O)cc2)C(=O)N2CCC[C@H]2C(=O)N[C@H](C(=O)N[C@@H](CCCNC(=N)N)C(N)=O)CSSC(C)(C)[C@H](NC(=O)[C@H](Cc2ccccc2)NC(=O)[C@H](CCCNC(=N)N)NC(=O)CCC(=O)N[C@@H](CCCNC(=N)N)C(=O)N[C@@H](Cc2ccccc2)C(=O)N[C@@H]2C(=O)N[C@@H]([C@@H](C)O)C(=O)NCC(=O)N[C@@H](Cc3c[nH]cn3)C(=O)N[C@@H](Cc3ccccc3)C(=O)NCC(=O)N(C)CC(=O)N(C)[C@@H](CC(C)C)C(=O)N[C@@H](Cc3ccc(O)cc3)C(=O)N3CCC[C@H]3C(=O)N[C@H](C(=O)N[C@@H](CCCNC(=N)N)C(N)=O)CSSC2(C)C)C(=O)N[C@@H]([C@@H](C)O)C(=O)NCC(=O)N[C@@H](Cc2c[nH]cn2)C(=O)N[C@@H](Cc2ccccc2)C(=O)NCC(=O)N(C)CC(=O)N1C [Peptide No. 311]
